The term EC50 denotes the midpoint of the concentration-response curve.

Numbered stars: 1 amine (or outer) side, 2 acyl side, 3 side chain; on linkers, the order of the positions; unused ones are H or OH. Bridge positions count the residues as written; N and C are the ends. Square brackets hold non-standard residues; d marks the D form. Side chains are listed from the residue outwards. Peptide text beside a SMILES is read from it. * marks the point of attachment. C18 diacid = O=C(O)CCCCCCCCCCCCCCCCC(=O)*; γGlu = O=C(O)[C@H](CCC(=O)[*:2])N[*:1]; Dab = NCC[C@H](N)C(=O)O; Aib = CC(C)(N)C(=O)O Where only a bound is given, the exact number is not on record here.

The target of data set [1] is T1, human amylin receptor (calcitonin receptor co-expressed with receptor activity modifying protein, RAMP3) (hAMYR3) (Homo sapiens, UniProt O60896+P30988).
T1 construct: expressed in transfected cells
T1 sequence (P30988 25-474): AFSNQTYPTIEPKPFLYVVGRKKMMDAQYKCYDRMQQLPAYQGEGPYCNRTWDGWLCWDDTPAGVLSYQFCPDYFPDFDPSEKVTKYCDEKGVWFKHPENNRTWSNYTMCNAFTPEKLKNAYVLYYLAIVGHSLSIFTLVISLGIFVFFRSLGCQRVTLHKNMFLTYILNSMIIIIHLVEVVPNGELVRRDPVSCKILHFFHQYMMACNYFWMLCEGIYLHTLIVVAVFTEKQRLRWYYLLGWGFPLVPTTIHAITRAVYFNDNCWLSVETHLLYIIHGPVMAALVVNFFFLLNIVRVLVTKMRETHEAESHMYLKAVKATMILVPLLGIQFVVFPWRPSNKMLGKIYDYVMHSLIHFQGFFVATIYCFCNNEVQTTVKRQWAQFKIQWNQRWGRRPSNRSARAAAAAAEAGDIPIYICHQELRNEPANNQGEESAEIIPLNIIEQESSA
T1 sequence (O60896 24-148 partner): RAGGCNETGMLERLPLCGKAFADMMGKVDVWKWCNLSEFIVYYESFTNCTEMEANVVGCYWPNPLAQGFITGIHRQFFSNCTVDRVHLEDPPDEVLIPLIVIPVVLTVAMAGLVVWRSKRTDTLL
In words: cAMP production in 1321N1 cells with stable recombinant expression of human amylin receptor (hAMYR3). The note with it: for Ratio (selectivity hAMYR vs hCTR, ratio of EC50 values at the two receptors): EC50 hCTR / EC50 hAMYR3; for EC50: cAMP, 1321N1 cells, assay buffer with 0.1% BSA, read-out: EC50 (pM) hAMYR3. The format is cell-based. A digest of the protocol: (§1)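 EC50 values come from 4-parameter logistic fits of HTRF cAMP signal, normalised to maximal calcitonin or amylin effect. Peptides were tested in duplicate for 30 min at RT in IBMX-containing (0.5 mM) BSA/HEPES buffer pH 7.4 on stable 1321N1 (human CTR, AMYR3) or HEK (rat CTR, AMYR3) lines.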

Data set [2] addresses T2, human calcitonin receptor (hCTR) (Homo sapiens, UniProt P30988).
T2 construct: expressed in transfected cells
T2 sequence (P30988 25-474): T1 sequence (P30988 25-474)
In words: cAMP production in 1321N1 cells with stable recombinant expression of human calcitonin receptor (hCTR). The format is cell-based. Particulars: cAMP, 1321N1 cells, assay buffer with 0.1% BSA; read-out: EC50 (pM) hCTR. A digest of the protocol:
as §1
On the technique in general: Changes in cAMP serve as a functional read-out for many G protein-coupled receptors.

Data set [3] in a line: Thioflavin T fibrillation assay. Particulars: ThT fibrillation assay; peptide 1 mg/mL in 25 mM sodium acetate buffer pH 4.0; 6 days at 37 °C with shaking; >144 h = no increase. The format is physicochemical. From the text:
Peptide aggregation that form fibrils is an indication of physical instability. Fibril formation in solution poses a significant risk for the stability of injectable peptide drug products. Thioflavin T (ThT) fibrillation assay is a useful tool to assess the aggregation kinetics of a peptide or protein under accelerated and stressed conditions that can be used to forecast the long-term viability of a compound in solution. ThT can selectively bind amyloid fibrils and the resultant complex emits strong fluorescence signal at 482 nm when excited at 450 nm (Anal Biochem. 1989 Mar;177(2):244-9). Monitoring of the change in fluorescence signal is an established method to study the fibril forming potential of peptides and proteins. ThT (purchased from Sigma Aldrich) stock solution is prepared by dissolving the ThT powder in Milli-Q water and filtered to obtain a 0.25 mM solution. The concentration of the solution is measured at 412 nm using an extinction coefficient of 36 mM^−1cm^−1. Test peptides were dissolved at 1 mg/mL in 25 mM sodium acetate buffer pH 4.0. 100 μL aliquot of peptide solution and 5 μL aliquot of ThT solution were placed in a clear bottom black fluorescence 96-well plate. 5 replicates of each test samples were placed in zo the same row of the plate. Buffer was placed in control wells for baseline correction. All empty wells were filled with water to prevent evaporation. The plate was sealed with aluminium seal and placed in fluorescence plate reader and incubated for 6 days at 37 ° C. with intermittent orbital shaking at 500 to 750 rpm. The fluorescence intensity was measured every 30 min using excitation at 444 nm and emission at 480 nm. The fibril forming potential of the test peptides was determined by measuring the average time taken to detect an increase in baseline corrected fluorescence intensity.

For the molecule `CC[C@H](C)[C@H](NC(=O)[C@@H]1CCCN1C(=O)CNC(=O)[C@H](Cc1ccccc1)NC(=O)[C@H](CC(N)=O)NC(=O)[C@H](CC(N)=O)NC(=O)[C@H](CO)NC(=O)[C@H](CO)NC(=O)[C@H](Cc1c[nH]cn1)NC(=O)[C@@H](NC(=O)[C@H](CC(C)C)NC(=O)[C@H](Cc1ccccc1)NC(=O)[C@H](CCN)NC(=O)[C@H](C)NC(=O)[C@H](CC(C)C)NC(=O)[C@H](CCCNC(=N)N)NC(=O)[C@H](CCC(N)=O)NC(=O)[C@@H](NC(=O)[C@H](C)NC(=O)[C@@H]1CSSC[C@H](NC(=O)[C@H](CCCCN)NC(=O)[C@@H](N)CCCCNC(=O)CC[C@H](NC(=O)CCCCCCCCCCCCCCCCC(=O)O)C(=O)O)C(=O)N[C@@H](CC(N)=O)C(=O)N[C@@H]([C@@H](C)O)C(=O)N[C@@H](C)C(=O)N[C@@H]([C@@H](C)O)C(=O)N1)[C@@H](C)O)C(C)C)C(=O)N[C@@H](CC(C)C)C(=O)N1CCC[C@H]1C(=O)N1CCC[C@H]1C(=O)N[C@H](C(=O)N[C@@H](CC(N)=O)C(=O)N[C@H](C(=O)NCC(=O)N[C@@H](CO)C(=O)N[C@@H](CC(N)=O)C(=O)N[C@H](C(=O)N[C@@H](Cc1ccc(O)cc1)C(N)=O)[C@@H](C)O)C(C)C)[C@@H](C)O` [Peptide 33] (H-K([γGlu-C18 diacid])KCNTATCATQRLA[Dab]FLVHSSNNFGPILPPTNVGSNTY-NH2; disulfide 3-8; N-terminus assumed), in data set [1], the “Ratio (selectivity hAMYR vs hCTR, ratio of EC50 values at the two receptors)” value is listed as 26 and the EC50 turned out to be 598 pM. In addition, in data set [2], the concentration for a half-maximal effect (EC50) came out at 15800 pM. Also, the “Time taken to detect increase in fluorescence intensity” value (“Time taken to detect increase” below) in data set [3] is >144 h.

Turning to `CC[C@H](C)[C@H](NC(=O)[C@@H]1CCCN1C(=O)CNC(=O)[C@H](Cc1ccccc1)NC(=O)[C@H](CC(N)=O)NC(=O)[C@H](CCN)NC(=O)[C@H](CO)NC(=O)[C@H](CO)NC(=O)[C@H](Cc1c[nH]cn1)NC(=O)[C@@H](NC(=O)[C@H](CC(C)C)NC(=O)[C@H](Cc1ccccc1)NC(=O)[C@H](CC(N)=O)NC(=O)[C@H](C)NC(=O)[C@H](CC(C)C)NC(=O)[C@H](CCCNC(=N)N)NC(=O)[C@H](CCC(N)=O)NC(=O)[C@@H](NC(=O)[C@H](C)NC(=O)[C@@H]1CSSC[C@H](NC(=O)[C@H](CCCCN)NC(=O)[C@@H](N)CCCCNC(=O)CC[C@H](NC(=O)CCCCCCCCCCCCCCCCC(=O)O)C(=O)O)C(=O)N[C@@H](CC(N)=O)C(=O)N[C@@H]([C@@H](C)O)C(=O)N[C@@H](C)C(=O)N[C@@H]([C@@H](C)O)C(=O)N1)[C@@H](C)O)C(C)C)C(=O)N[C@@H](CC(C)C)C(=O)N1CCC[C@H]1C(=O)N1CCC[C@H]1C(=O)N[C@H](C(=O)N[C@@H](CCC(=O)O)C(=O)N[C@H](C(=O)NCC(=O)N[C@@H](CO)C(=O)N[C@@H](CC(N)=O)C(=O)N[C@H](C(=O)N[C@@H](Cc1ccc(O)cc1)C(N)=O)[C@@H](C)O)C(C)C)[C@@H](C)O` [Peptide 28, K(γE-C18diacid)K[CNTATC]ATQRLANFLVHSS(Dab)NFGPILPPTEVGSNTY-amide] (H-K([γGlu-C18 diacid])KCNTATCATQRLANFLVHSS[Dab]NFGPILPPTEVGSNTY-NH2; disulfide 3-8; N-terminus assumed), in data set [1], the “Ratio (selectivity hAMYR vs hCTR, ratio of EC50 values at the two receptors)” value came to 23. Moreover, the half-maximal effective concentration (EC50) amounted to 390 pM in data set [1] and 9140 pM in data set [2]. Further, the “Time taken to detect increase” value in data set [3] turned out to be 45 h.

With `CC[C@H](C)[C@H](NC(=O)[C@@H]1CCCN1C(=O)CNC(=O)[C@H](Cc1ccccc1)NC(=O)[C@H](CC(N)=O)NC(=O)[C@H](CC(N)=O)NC(=O)[C@H](CO)NC(=O)[C@H](CO)NC(=O)[C@H](Cc1c[nH]cn1)NC(=O)[C@@H](NC(=O)[C@H](CC(C)C)NC(=O)[C@H](Cc1ccccc1)NC(=O)[C@H](CC(N)=O)NC(=O)[C@H](C)NC(=O)[C@H](CC(C)C)NC(=O)[C@H](CCCNC(=N)N)NC(=O)[C@H](CCC(N)=O)NC(=O)[C@@H](NC(=O)[C@H](C)NC(=O)[C@@H]1CSSC[C@H](NC(=O)[C@@H](N)CCCCNC(=O)CC[C@H](NC(=O)CCCCCCCCCCCCCCCCC(=O)O)C(=O)O)C(=O)N[C@@H](CC(N)=O)C(=O)N[C@@H]([C@@H](C)O)C(=O)N[C@@H](C)C(=O)N[C@@H]([C@@H](C)O)C(=O)N1)[C@@H](C)O)C(C)C)C(=O)N[C@@H](CC(C)C)C(=O)N1CCC[C@@H]1C(=O)N1CCC[C@H]1C(=O)N[C@H](C(=O)N[C@@H](CC(N)=O)C(=O)N[C@H](C(=O)NCC(=O)N[C@@H](CO)C(=O)N[C@@H](CC(N)=O)C(=O)N[C@H](C(=O)N[C@@H](Cc1ccc(O)cc1)C(N)=O)[C@@H](C)O)C(C)C)[C@@H](C)O` [Peptide 104] (H-K([γGlu-C18 diacid])CNTATCATQRLANFLVHSSNNFGPIL[dP]PTNVGSNTY-NH2; disulfide 2-7; N-terminus assumed), in data set [1], the “Ratio (selectivity hAMYR vs hCTR, ratio of EC50 values at the two receptors)” value is reported as 23 and the EC50 was found to be 79 pM. Moreover, the half-maximal effective concentration (EC50) in data set [2] was 1820 pM. The “Time taken to detect increase” value in data set [3] is on record as <5 h.

For the molecule `CC[C@H](C)[C@H](NC(=O)[C@@H]1CCCN1C(=O)CNC(=O)[C@H](Cc1ccccc1)NC(=O)[C@H](CC(N)=O)NC(=O)[C@H](CC(N)=O)NC(=O)[C@H](CO)NC(=O)[C@H](CO)NC(=O)[C@H](Cc1c[nH]cn1)NC(=O)[C@@H](NC(=O)[C@H](CC(C)C)NC(=O)[C@H](Cc1ccccc1)NC(=O)[C@H](CC(N)=O)NC(=O)[C@H](C)NC(=O)[C@H](CC(C)C)NC(=O)[C@H](CCCNC(=N)N)NC(=O)[C@H](CCC(N)=O)NC(=O)[C@@H](NC(=O)[C@H](C)NC(=O)[C@@H]1CSSC[C@H](NC(=O)[C@H](CCCCN)NC(=O)[C@@H](N)CCCCNC(=O)CC[C@H](NC(=O)CCCCCCCCCCCCCCCCC(=O)O)C(=O)O)C(=O)N[C@@H](CC(N)=O)C(=O)N[C@@H]([C@@H](C)O)C(=O)N[C@@H](C)C(=O)N[C@@H]([C@@H](C)O)C(=O)N1)[C@@H](C)O)C(C)C)C(=O)NC(C)(C)C(=O)N1CCC[C@H]1C(=O)N1CCC[C@H]1C(=O)N[C@H](C(=O)N[C@@H](CC(N)=O)C(=O)N[C@H](C(=O)NCC(=O)N[C@@H](CO)C(=O)N[C@@H](CC(N)=O)C(=O)N[C@H](C(=O)N[C@@H](Cc1ccc(O)cc1)C(N)=O)[C@@H](C)O)C(C)C)[C@@H](C)O` [Peptide 108, K(γE-C18diacid)K[CNTATC]ATQRLANFLVHSSNNFGPI(Aib)PPTNVGSNTY-amide] (H-K([γGlu-C18 diacid])KCNTATCATQRLANFLVHSSNNFGPI[Aib]PPTNVGSNTY-NH2; disulfide 3-8; N-terminus assumed), in data set [1], the “Ratio (selectivity hAMYR vs hCTR, ratio of EC50 values at the two receptors)” value was determined as 8 and the EC50 was 801 pM. Further, in data set [2], the EC50 turned out to be 6810 pM.

The values are drawn from patent publication US20240067693A1, “POLYPEPTIDES AND USES THEREOF” (MEDIMMUNE LIMITED, priority 2020, published 2024).
